Holding throughout (type): cell-based, human
The subject of one assay is caspase 3. Nature of the assay: Caspase 3 activation (FITC-DEVD-FMK, FACS analysis). To be noted: for cells positive for activated caspase 3: 24 h; for cells with activated caspase 3: 72 h. The method, then:
(§1) The activation of caspase-9 (mitochondrial apoptosis) and caspase-3 (activated downstream of caspase-9), was evaluated in cell lines (10^6 cells/well in a 24 wells plate) incubated with different concentrations of 072RB (1, 10 µM for 24h, 48h and 72h, in complete RPMI medium + 10% FCS at 37°C, using the caspase-9 and caspase-3 Detection Kit (Calbiochem, Darmstadt, Germany). The assay utilizes LEHD-FMK or DEVD-FMK conjugated to fluorescein-isothiocyanate (FITC) as caspase-9 or caspase-3 in situ marker. FITC-LEHD-FMK and FITC-DEVD-FMK are cell permeable, non toxic, and irreversibly bind only to activated caspase-9 or -3 in apoptotic cells. Samples were run on a flow cytometer (FACSort, Becton Dickinson) equipped with an argon ion laser exiting FITC at 488nm, At least 10^5 events were analysed for each sample using the CellQuest computer program. Data are expressed as Log green fluorescence intensity (a.u.) vs cell number. Calibration was assessed with CALIBRITE particles (Becton Dickinson) using the AutoCOMP computer program.
(§2) Cells were incubated for 24, 48 and 72 h with 072RB (10 µM) or Int (10 µM), together with FITC-LEDH-FMK or FITC-DEVD-FMK, to detect caspase 9 and caspase 3 activation, respectively (FACS analysis). […] Furthermore, caspase 3, a downstream substrate of caspase 9, was progressively activated at increasing incubation times with 072RB. After 24 h of incubation 30% of U937, 35% of Namalwa, 22% of Jurkat cells, respectively, were positive for activated caspase 3; after 72 h of incubation 70% of U937, 60% of Namalwa, and 35% of Jurkat cells, respectively, had activated caspase 3. On the contrary, a negligible fraction of cells incubated with the Int peptide (1-3%), a % similar to that observed in untreated cells, expressed activated caspase 3.

The next assay relates to caspase 9. Nature of the assay: Caspase 9 activation (FITC-LEHD-FMK, FACS analysis). The conditions noted are these: 48 h. As to the method:
as §1, §2
For orientation: In flow cytometry, cells or beads pass a laser one at a time.

Assay [1] relates to ALL: acute lymphoid leukaemia. Nature of the assay: Ex vivo bone marrow cells, flow cytometry DNA/SSC analysis of apoptosis. To be noted: analysed day 4. The method, then: (§3) For experiments with primary cells of acute lymphoblastic leukaemia (ALL), […] Acute Myeloid Leukaemia (AML), fresh samples of bone marrow aspirates were from patients who had at least 80% blasts among their mononuclear cells. Normal hematopoietic cells (NBM) were obtained from healthy volunteers. Mononuclear cells were isolated from the samples by Ficoll density-gradient centrifugation. Primary cells were cultured as above. The collection of human specimens was performed after informed consent of the patient during diagnostic procedure. Viability was determined by Facs analysis: PI emission fluorescence.
(§4) Cells were harvested and incubated with 30 µg/ml PI (Sigma Chemical Co.) and 0.5 mg/ml RNase for 30 min at room temperature and in the dark. Flow cytometric measurements of Forward Scatter (FSC) and Side Scatter (SSC) of light emitted from the excitation laser, and of PI emission fluorescence, were performed on a FACSCalibur (Becton Dickinson) flow cytometer. At least 10,000 events were acquired on a linear scale from each sample. Frequency distributions of DNA content and SSC were analysed for the evaluation of apoptosis at different apoptotic stages and cell cycle phases, as previously described.
(§5) Bone marrow aspirates from patients with different leukaemia types were plated in tissue culture medium supplemented with 20% FCS, treated with 072RB twice every 48 h, and followed for 4 days. They were evaluated by flow cytometry DNA/SSC analysis, In Table 3 we show the percentage of [early + late apoptotic cells], according to leukaemia type and Int or 072RB dosage. To further study sensitivity to 072RB of normal cells, peripheral blood lymphocytes (PBL) isolated from four independent healthy donors were subjected to a four-days treatment with 10 µM 072RB. Treatment was performed, as usual, with two pulses at a 48 h interval. Lymphocytes were either un-stimulated or activated by PHA. […] Comparing treated and untreated normal peripheral lymphocytes, the ratio of viable cells between the two groups was 0.87 ± 0.05 (mean ± SE) for quiescent lymphocytes and 0.82 ± 0.057 for proliferating lymphocytes. This effect of 072RB on normal lymphocytes seems especially small if we consider the effects observed in leukaemia cell lines (see supplementary information), and also the effects observed in AML cells from ex vivo experiments: 0.55 ± 0.145 (mean ± SE). Table 3: Effect of 072RB on haematological malignancies (AML: acute myeloid leukaemia; ALL: acute lymphoid leukaemia; NBM: normal bone marrow): percentage of early/late apoptotic cells. Mean values from duplicate experiments are reported. The difference between the two individual values never exceeded 15% of the mean value. Ex vivo isolated cells were treated with either Int or 072RB at day 0, 2 (5, 10 µM), at day 0, 1, 2, 3 (1, 3 µM) and analysed after PI staining at day 4.

A further assay deals with NBM: normal bone marrow. The description is as above. The conditions noted are these: analysed day 4. As to the method: as §3, §4, §5
Assay [2] deals with AML: acute myeloid leukaemia. The description is as above. The conditions noted are these: for percentage of early/late apoptotic cells: AML, analysed day 4. The method, then:
as §3, §4, §5

The mark [3] stands for this setting: ALL, Pro-B (control 32), 5 µM at day 0, 2.
Where [4] appears, read: ALL, Pro-B (control 32), 10 µM at day 0, 2.
Setting [5] is: NBM sample with control 15, treated with 15 µM (footnote *), printed in the 10 µM column.
[6] abbreviates: NBM sample with control 39, 10 µM at day 0, 2.
Where [7] appears, read: FAB M0 (control 33), 5 µM at day 0, 2.
Where [8] appears, read: FAB M0 (control 33), 10 µM at day 0, 2.
[9] abbreviates: FAB M3 (control 23), 5 µM at day 0, 2.
[10] abbreviates: FAB M3 (control 23), 10 µM at day 0, 2.

Marks after values point to notes of the source that are not given here. Where a SMILES comes first, the peptide text is derived from it. [ ]: non-standard residue; d: D form. Aib = CC(C)(N)C(=O)O

Take “KKWKMRRNPFWIKIQR [Int, internalisation tag, a modified Q50P 16 aa Antennapedia IIIrd α-helix, reference compound]”: the “fraction of cells expressing activated caspase 3” value in the assay on caspase 3 (10 µM, cell line and time not specified, similar to untreated cells) is given as 1-3%. Moreover, the “fraction of cells expressing activated caspase 9” value with caspase 9 (Jurkat, 10 µM) is reported as 1.3%; with caspase 9 (Namalwa, 10 µM), 2.0%; in the assay with caspase 9 (U937, 10 µM), 1.5%. For the same compound, the “percentage of early/late apoptotic cells” value in assay [1] (setting [3]) was 32 percentage; in assay [1] (setting [4]), 43 percentage; in the assay on NBM: normal bone marrow (setting [5]), 18* percentage; in the assay on NBM: normal bone marrow (setting [6]), 37 percentage; in assay [2] (setting [7]) it was 32 percentage; in assay [2] (setting [8]), 38 percentage. Moreover, the “percentage of early/late apoptotic cells” value in assay [2] (setting [9]) turned out to be 26 percentage; in assay [2] (setting [10]) it was 28 percentage.

Consider `CC[C@H](C)[C@H](NC(=O)[C@H](CCCNC(=N)N)NC(=O)[C@H](CCCNC(=N)N)NC(=O)[C@H](CC(C)C)NC(=O)[C@H](CCC(=O)O)NC(=O)[C@H](CCC(N)=O)NC(=O)C(C)(C)NC(=O)[C@@H](NC(=O)[C@H](Cc1ccc(O)cc1)NC(=O)[C@@H](NC(=O)[C@H](CCC(=O)O)NC(=O)[C@@H]1CCCN1C(=O)[C@H](CCCNC(=N)N)NC(=O)[C@H](CCSC)NC(=O)[C@@H](N)CC(=O)O)[C@@H](C)CC)[C@@H](C)CC)C(=O)NCC(=O)N[C@@H](CC(=O)O)C(=O)N[C@@H](C)C(=O)N[C@@H](Cc1ccccc1)C(=O)N[C@@H](CC(N)=O)C(=O)NC(C)(C)C(=O)N[C@@H](Cc1ccc(O)cc1)C(=O)N[C@@H](CCCCN)C(=O)N[C@@H](CCCCN)C(=O)N[C@@H](Cc1c[nH]c2ccccc12)C(=O)N[C@@H](CCCCN)C(=O)N[C@@H](CCSC)C(=O)N[C@@H](CCCNC(=N)N)C(=O)N[C@@H](CCCNC(=N)N)C(=O)N[C@@H](CC(N)=O)C(=O)N1CCC[C@H]1C(=O)N[C@@H](Cc1ccccc1)C(=O)N[C@@H](Cc1c[nH]c2ccccc12)C(=O)N[C@H](C(=O)N[C@@H](CCCCN)C(=O)N[C@H](C(=O)N[C@@H](CCC(N)=O)C(=O)N[C@@H](CCCNC(=N)N)C(N)=O)[C@@H](C)CC)[C@@H](C)CC` [Peptide 072RB] (H-DMRPEIYI[Aib]QELRRIGDAFN[Aib]YKKWKMRRNPFWIKIQR-NH2; N-terminus and C-terminus assumed), for which the “cells positive for activated caspase 3” value turned out to be 22% in the assay with caspase 3 (Jurkat, 10 µM); 35% in the assay with caspase 3 (Namalwa, 10 µM); 30% with caspase 3 (U937, 10 µM). Further, the “cells with activated caspase 3” value with caspase 3 (Jurkat, 10 µM) was determined as 35%; in the assay on caspase 3 (Namalwa, 10 µM) it was 60%; in the assay with caspase 3 (U937, 10 µM), 70%. The “fraction of cells expressing activated caspase 9” value with caspase 9 (Jurkat, 10 µM) was 10-33%; in the assay on caspase 9 (Namalwa, 10 µM), 15-35%; in the assay on caspase 9 (U937, 10 µM), 30-65%. For the same compound, the “percentage of early/late apoptotic cells” value amounted to 42 percentage in assay [1] (ALL sample with control 40, 5 µM at day 0, 2); 45 percentage in assay [1] (ALL sample with control 40, 10 µM at day 0, 2); 67 percentage in assay [1] (ALL sample with control 43, 5 µM at day 0, 2); 60 percentage in assay [1] (ALL sample with control 52, 5 µM at day 0, 2); 80 percentage in assay [1] (ALL sample with control 52, 10 µM at day 0, 2); 56 percentage in assay [1] (setting [3]). Also, the “percentage of early/late apoptotic cells” value is given as 63 percentage in assay [1] (setting [4]); 21* percentage with NBM: normal bone marrow (setting [5]); 39 percentage in the assay with NBM: normal bone marrow (setting [6]); 36 percentage in assay [2] (setting [7]); 42 percentage in assay [2] (setting [8]); 22 percentage in assay [2] (FAB M0-M1 (control 14), 5 µM at day 0, 2). The “percentage of early/late apoptotic cells” value in assay [2] (FAB M0-M1 (control 14), 10 µM at day 0, 2) turned out to be 40 percentage; in assay [2] (FAB M2 (control 24), 5 µM at day 0, 2) it was 66 percentage; in assay [2] (setting [9]), 64 percentage; in assay [2] (setting [10]), 82 percentage; in assay [2] (FAB M4-M5 (control 50), 5 µM at day 0, 2) it was 75 percentage; in assay [2] (FAB M6 (control 15), 10 µM at day 0, 2) it was 67 percentage. Moreover, the “ratio of viable cells, treated versus untreated” value in assay [2] (AML cells from ex vivo experiments, mean ± SE) stood at 0.55 ± 0.145.

(Values after patent EP1985629A1, “Pro-apoptotic molecules and therapeutic uses thereof” (UNIVERSITA DEGLI STUDI DI GENOVA, priority 2007, dated 2008).)
